How the values were obtained:
AP activity = assay: Wieslab AP assay in MAD study; assay type: in vivo, human; conditions: for inhibition of AP activity (Wieslab AP assay): sustained over 14 days of dosing
Bb = Bb level in MAD study; assay type: in vivo, human; conditions: all iptacopan cohorts
[1] = Clinical phase 2 studies in PNH, IgAN, C3G; assay type: in vivo, human
[2] = 39-week dog toxicity study, safety margins for human exposure; conditions: 39-week dog study
[3] = First in human study in healthy volunteers, single ascending dose (SAD) and multiple ascending dose (MAD)

## CCO[C@H]1CCN(Cc2c(OC)cc(C)c3[nH]ccc23)[C@H](c2ccc(C(=O)O)cc2)C1 [iptacopan]
AP activity; 100 mg b.i.d.
  inhibition of AP activity (Wieslab AP assay): ≥ 80%
AP activity; 200 mg b.i.d.
  inhibition of AP activity (Wieslab AP assay): ≥ 80%
AP activity; MAD study, 10 to 200 mg b.i.d. for 2 weeks
  suppression of AP activity (Wieslab AP assay): dose dependent suppression of AP activity
Bb
  Bb level decrease from the baseline: 30-40%
[1]; 200 mg b.i.d., all tested indications (PNH, IgAN, C3G)
  response rate: highest response rate
[1]; IgAN study Part 1, 200 mg b.i.d., over 90 days
  proteinuria: reduce proteinuria
[2]
  unbound systemic exposure (AUC-based) at 200 mg b.i.d. below lowest exposure with off-target testicular effects (LOAEL): 17.3 fold
[3]; 102 healthy volunteers, SAD and MAD
  deaths, SAEs, or AEs leading to study drug discontinuation: No deaths, SAEs, or AEs leading to study drug discontinuation were observed
[3]; first in human studies
  permeability: good permeability
  solubility: high solubility

From patent US20240398779A1, “USE OF FACTOR B INHIBITORS FOR THE TREATMENT OF AGE-RELATED MACULAR DEGENERATION” (priority 2021, published 2024)
